Laboratory results published in patent publication US9029337B2, “Modulation of factor 7 expression” (Isis Pharmaceuticals, Inc., priority 2007, dated 2015).
Strand notation (5' to 3'): a small letter for the sugar, then the base; units joined by * are phosphorothioate-linked, units joined directly phosphodiester-linked; [ ] holds rarer units or linkages, { } end groups; capitals alone tell only the bases. e = 2'-O-(2-methoxyethyl) (MOE); [5mC] = 5-methylcytosine; d = 2'-deoxy (DNA)

Tests used:
Assay type in all cases: cell-based
human Factor 7 mRNA [1] = test: Antisense inhibition of human Factor 7 with short (14-mer) oligonucleotides in HepB3 cells, electroporation 1,000 nM; conditions: electroporation, 1,000 nM antisense oligonucleotide, approximately 24 hours, Factor 7 mRNA relative to untreated control cells
Excerpt: Short antisense oligonucleotides (shortmers) were designed to target a Factor 7 nucleic acid. The shortmers in Table 17 were designed as 2-10-2 MOE gapmers. The gapmers are 14 nucleotides in length, wherein the central gap segment is comprised of 10 2′-deoxynucleotides and is flanked on both sides (in the 5′ and 3′ directions) by wings comprising 2 nucleotides each. Each nucleotide in the 5′ wing segment and each nucleotide in the 3′ wing segment has a 2′-MOE modification. The internucleoside linkages throughout each gapmer are phosphorothioate (P═S) linkages. All cytidine residues throughout each gapmer are 5-methylcytidines.
Shortmers were evaluated for their ability to reduce human Factor 7 mRNA in HepB3 cells and compared with one 5-10-5 chimeric oligonucleotide from Table 16, ISIS 407939. HepB3 cells at a density of 20,000 cells per well in a 96-well plate were transfected using electroporation with 1,000 nM of antisense oligonucleotide. After a treatment period of approximately 24 hours, RNA was isolated from the cells and Factor 7 mRNA levels were measured by real-time RT-PCR, as described herein. Factor 7 mRNA levels were adjusted according to total RNA content as measured by RIBOGREEN®. Results are presented in Table 17 as percent inhibition of Factor 7 mRNA, relative to untreated control cells. ISIS 407939 is the first oligonucleotide in Table 17 to which the shortmers were compared, and is marked by an asterisk (*).

human Factor 7 mRNA [2] = test: Antisense inhibition of human Factor 7 mRNA in HepB3 cells, 50 nM antisense oligonucleotide, lipofectin; conditions: for % Inhibition: lipofectin, approximately 24 hours
Method in brief: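 Cells plated at 4,000 per well were transfected and harvested after approximately 24 hours of treatment. Transcript levels, measured with primer probe set RTS 2927, were normalised to total RNA by RIBOGREEN®. Values are percent inhibition relative to untreated control cells.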

human Factor 7 mRNA [3] = test: Dose-dependent antisense inhibition of human Factor 7 in HepB3 cells, lipofectin; conditions: approximately 16 hours
Protocol: Cells were plated at a density of 4,000 cells per well and treated with lipofectin reagent with 3.125 nM, 6.25 nM, 12.5 nM, 25 nM, 50 nM, and 100 nM concentrations of antisense oligonucleotide, as indicated in Table 3. After a treatment period of approximately 16 hours, RNA was isolated from the cells and Factor 7 mRNA levels were measured by real-time RT-PCR, as described herein. Human Factor 7 primer probe set RTS 2927 (forward sequence: […], incorporated herein as SEQ ID NO: 164; reverse sequence: […], incorporated herein as SEQ ID NO: 165; probe sequence: TGGGTGGTCTCCGCGGCCX, incorporated herein as SEQ ID NO: 166) was used to measure mRNA levels. Factor 7 mRNA levels were adjusted according to total RNA content as measured by RIBOGREEN®. Results are presented as percent inhibition of Factor 7, relative to untreated control cells.
Cells were plated at a density of 4,000 cells per well and transfected using lipofectin reagent with 6.25 nM, 12.5 nM, 25.0 nM, 50.0 nM, and 100.0 nM concentrations of antisense oligonucleotide, as indicated in Table 7. After a treatment period of approximately 16 hours, RNA was isolated from the cells and Factor 7 mRNA levels were measured by real-time RT-PCR, as described herein. Human Factor 7 primer probe set RTS 2927 was used to measure mRNA levels. Factor 7 mRNA levels were adjusted according to total RNA content as measured by RIBOGREEN®. Results are presented as percent inhibition of Factor 7, relative to untreated control cells.
Cells were plated at a density of 4,000 cells per well and transfected using lipofectin reagent with 3.125 nM, 6.25 nM, 12.5 nM, 25 nM, 50 nM, and 100 nM concentrations of antisense oligonucleotide, as specified in Table 14. After a treatment period of approximately 16 hours, RNA was isolated from the cells and Factor 7 mRNA levels were measured by quantitative real-time PCR. Human Factor 7 primer probe set RTS 2927 was used to measure mRNA levels. Factor 7 mRNA levels were adjusted according to total RNA content, as measured by RIBOGREEN®. Results are presented as percent inhibition of Factor 7, relative to untreated control cells.

435789 (antisense e[5mC]*eA*dT*dG*dT*dT*dA*dG*d[5mC]*d[5mC]*dT*dT*eT*eG) [compound 435789]
% Inhibition (human Factor 7 mRNA [1]): 3%

435497 (antisense eG*eG*dG*dA*dG*dA*d[5mC]*d[5mC]*d[5mC]*dT*dG*dG*eT*eG) [compound 435497]
% Inhibition (human Factor 7 mRNA [1]): 27%

435850 (antisense e[5mC]*eT*dT*dG*dG*d[5mC]*d[5mC]*dA*dG*dT*dG*dT*eG*eG) [compound 435850]
% Inhibition (human Factor 7 mRNA [1]): 15%

435493 (antisense eG*eA*d[5mC]*d[5mC]*d[5mC]*dT*dG*dG*dT*dG*dT*dA*e[5mC]*eA) [compound 435493]
% Inhibition (human Factor 7 mRNA [1]): 58%

435738 (antisense e[5mC]*eA*dG*dA*dG*dG*dA*dT*dG*dA*dG*d[5mC]*eA*e[5mC]) [compound 435738]
% Inhibition (human Factor 7 mRNA [1]): 16%

435778 (antisense eG*e[5mC]*dT*dA*d[5mC]*dT*dG*dG*dG*d[5mC]*d[5mC]*dA*e[5mC]*eG) [compound 435778]
% Inhibition (human Factor 7 mRNA [1]): 49%

435835 (antisense eT*eT*dA*dT*dT*dT*dG*dG*dG*d[5mC]*dA*dT*eG*eG) [compound 435835]
% Inhibition (human Factor 7 mRNA [1]): 7%

435660 (antisense e[5mC]*e[5mC]*dG*dT*d[5mC]*dT*dG*d[5mC]*d[5mC]*dA*dG*d[5mC]*eA*eG) [compound 435660]
% Inhibition (human Factor 7 mRNA [1]): 58%

435837 (antisense e[5mC]*eT*d[5mC]*dG*d[5mC]*d[5mC]*dT*dG*dG*dA*dA*dG*eG*eA) [compound 435837]
% Inhibition (human Factor 7 mRNA [1]): 37%

435800 (antisense eG*eG*dA*d[5mC]*d[5mC]*d[5mC]*dA*dA*dA*dG*dT*dG*eG*eG) [compound 435800]
% Inhibition (human Factor 7 mRNA [1]): 0%

435724 (antisense e[5mC]*eT*dG*dA*dG*dG*d[5mC]*d[5mC]*dA*dG*d[5mC]*dA*eG*eA) [compound 435724]
% Inhibition (human Factor 7 mRNA [1]): 52%

435745 (antisense eG*eG*dG*dA*dG*d[5mC]*dT*dA*d[5mC]*dA*dG*d[5mC]*e[5mC]*eT) [compound 435745]
% Inhibition (human Factor 7 mRNA [1]): 0%

435779 (antisense eT*eG*dA*dG*d[5mC]*dG*d[5mC]*dG*dG*dA*dA*dG*eA*eA) [compound 435779]
% Inhibition (human Factor 7 mRNA [1]): 50%

435731 (antisense eG*eT*dG*dA*dG*dA*dG*d[5mC]*dT*dA*dA*dA*e[5mC]*eA) [compound 435731]
% Inhibition (human Factor 7 mRNA [1]): 11%

435639 (antisense eT*e[5mC]*d[5mC]*dA*dG*dA*dA*d[5mC]*dA*dG*d[5mC]*dT*eT*e[5mC]) [compound 435639]
% Inhibition (human Factor 7 mRNA [1]): 31%

435669 (antisense eG*eG*dA*d[5mC]*d[5mC]*dT*dG*d[5mC]*d[5mC]*dA*dT*dG*eG*eA) [compound 435669]
% Inhibition (human Factor 7 mRNA [1]): 36%

435769 (antisense eT*eT*d[5mC]*dT*dT*dT*dG*dA*dA*dA*dA*dA*eT*eA) [compound 435769]
% Inhibition (human Factor 7 mRNA [1]): 0%

435824 (antisense e[5mC]*e[5mC]*dT*dA*dA*dA*dG*dA*dT*dG*dA*dA*eT*e[5mC]) [compound 435824]
% Inhibition (human Factor 7 mRNA [1]): 21%

435821 (antisense eA*eG*dT*d[5mC]*dA*dG*dT*dA*d[5mC]*dA*dG*dA*e[5mC]*eA) [compound 435821]
% Inhibition (human Factor 7 mRNA [1]): 0%

435500 (antisense eA*e[5mC]*dT*dG*dG*dG*dA*dG*dA*d[5mC]*d[5mC]*d[5mC]*eT*eG) [compound 435500]
% Inhibition (human Factor 7 mRNA [1]): 49%

435829 (antisense eG*eG*dG*dT*dA*dG*dA*d[5mC]*d[5mC]*d[5mC]*dT*d[5mC]*eA*eG) [compound 435829]
% Inhibition (human Factor 7 mRNA [1]): 18%

435775 (antisense eT*e[5mC]*dT*dG*dG*dA*dA*dG*dG*dA*dA*d[5mC]*eA*eG) [compound 435775]
% Inhibition (human Factor 7 mRNA [1]): 25%

435693 (antisense eG*eG*d[5mC]*dA*dG*dT*d[5mC]*d[5mC]*dT*dG*dG*dG*eT*e[5mC]) [compound 435693]
% Inhibition (human Factor 7 mRNA [1]): 43%

435771 (antisense eG*eT*d[5mC]*dA*dT*dA*dA*dG*dG*d[5mC]*d[5mC]*dA*eT*eG) [compound 435771]
% Inhibition (human Factor 7 mRNA [1]): 13%

435681 (antisense eA*eT*dG*dA*d[5mC]*d[5mC]*dT*dG*d[5mC]*dG*d[5mC]*d[5mC]*eA*e[5mC]) [compound 435681]
% Inhibition (human Factor 7 mRNA [1]): 40%

435688 (antisense eA*e[5mC]*d[5mC]*dA*d[5mC]*dA*dT*dG*dG*dT*d[5mC]*dA*eG*eT) [compound 435688]
% Inhibition (human Factor 7 mRNA [1]): 0%

435827 (antisense eT*e[5mC]*dA*dG*dA*dA*dA*dG*dA*dT*dG*d[5mC]*eA*eG) [compound 435827]
% Inhibition (human Factor 7 mRNA [1]): 5%

435637 (antisense eT*eG*dA*dA*dG*d[5mC]*d[5mC]*d[5mC]*dA*dA*dG*d[5mC]*eA*eG) [compound 435637]
% Inhibition (human Factor 7 mRNA [1]): 11%

435678 (antisense eA*eG*dG*dT*d[5mC]*dG*dT*dG*d[5mC]*dT*d[5mC]*dG*e[5mC]*e[5mC]) [compound 435678]
% Inhibition (human Factor 7 mRNA [1]): 67%

435781 (antisense eA*e[5mC]*d[5mC]*dA*d[5mC]*dG*d[5mC]*dG*dG*dT*dG*dG*eT*eG) [compound 435781]
% Inhibition (human Factor 7 mRNA [1]): 0%

435830 (antisense eT*eG*dA*dT*dT*dT*dT*dG*d[5mC]*dA*dA*dA*eG*eA) [compound 435830]
% Inhibition (human Factor 7 mRNA [1]): 0%

435720 (antisense eA*eG*dG*d[5mC]*dT*d[5mC]*dA*dG*d[5mC]*dT*dG*dG*eG*e[5mC]) [compound 435720]
% Inhibition (human Factor 7 mRNA [1]): 16%

435718 (antisense eG*e[5mC]*dT*d[5mC]*dG*d[5mC]*dA*dG*dG*dA*dG*dG*eA*e[5mC]) [compound 435718]
% Inhibition (human Factor 7 mRNA [1]): 26%

435733 (antisense e[5mC]*eT*dG*dA*dA*dT*dT*dG*dT*d[5mC]*dT*dG*eA*eA) [compound 435733]
% Inhibition (human Factor 7 mRNA [1]): 5%

435847 (antisense eT*eG*dG*dT*dG*dT*dG*d[5mC]*dA*d[5mC]*dA*d[5mC]*eA*eT) [compound 435847]
% Inhibition (human Factor 7 mRNA [1]): 36%

407594 (antisense e[5mC]*e[5mC]*eT*eG*e[5mC]*dA*dG*d[5mC]*d[5mC]*dA*dG*dG*d[5mC]*dA*dG*e[5mC]*e[5mC]*e[5mC]*eT*eG) [compound 407594]
% Inhibition (human Factor 7 mRNA [2]; Table 1, 50 nM, relative to untreated control cells): 87%
percent inhibition of Factor 7 (human Factor 7 mRNA [3]; Table 3, 3.125 nM): 10%
percent inhibition of Factor 7 (human Factor 7 mRNA [3]; Table 3, 6.25 nM): 34%
percent inhibition of Factor 7 (human Factor 7 mRNA [3]; Table 3, 12.5 nM): 63%
percent inhibition of Factor 7 (human Factor 7 mRNA [3]; Table 3, 25.0 nM): 77%
percent inhibition of Factor 7 (human Factor 7 mRNA [3]; Table 3, 50.0 nM): 84%
percent inhibition of Factor 7 (human Factor 7 mRNA [3]; Table 3, 100.0 nM): 80%

416477 (antisense e[5mC]*eA*eG*e[5mC]*e[5mC]*dT*dG*dA*dG*dG*d[5mC]*d[5mC]*dA*dG*d[5mC]*eA*eG*eA*eT*e[5mC]) [compound 416477]
% Inhibition (human Factor 7 mRNA [2]; 50 nM antisense oligonucleotide, Factor 7 mRNA by real-time RT-PCR (RTS 2927), relative to untreated control): 74%
% Inhibition (human Factor 7 mRNA levels) (human Factor 7 mRNA [2]; oligonucleotides targeted to nucleobases 14707 to 14732 of SEQ ID NO: 1 (Table 11)): 71%
percent inhibition of Factor 7 (human Factor 7 mRNA [3]; Table 7, 6.25 nM): 21%
percent inhibition of Factor 7 (human Factor 7 mRNA [3]; Table 7, 12.5 nM): 46%
percent inhibition of Factor 7 (human Factor 7 mRNA [3]; Table 7, 25.0 nM): 64%
percent inhibition of Factor 7 (human Factor 7 mRNA [3]; Table 7, 50.0 nM): 78%
percent inhibition of Factor 7 (human Factor 7 mRNA [3]; Table 7, 100.0 nM): 87%
